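Assay format: 96-well plates, 48-hour exposure. Abbreviation: GI50, concentration required for 50% inhibition of growth.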 The source made the active and inactive calls. No stated cut-off is given here; in the data, active = GI50 up to about 1.1 µM and inactive = higher.
Experiments:
Experiment in all cases: inhibition of tumour cell growth, NCI panel, 48 h
EKVX = system: EKVX
HL-60 = system: HL-60
NCI-H23 = system: NCI-H23
Malme-3M = system: Malme-3M
HCT-116 = system: HCT-116
NCI-H226 = system: NCI-H226
HOP-18 = system: HOP-18
LXFL 529 = system: LXFL 529
SR = system: SR
UACC-257 = system: UACC-257
SN12C = system: SN12C
CAKI-1 = system: CAKI-1
M19-MEL = system: M19-MEL
KM12 = system: KM12
RPMI-8226 = system: RPMI-8226
UACC-62 = system: UACC-62
HT-29 = system: HT-29
SF-295 = system: SF-295
DLD-1 = system: DLD-1
SNB-75 = system: SNB-75
OVCAR-4 = system: OVCAR-4
K562 = system: K562
OVCAR-3 = system: OVCAR-3
SK-MEL-28 = system: SK-MEL-28
786-0 = system: 786-0
LOX IMVI = system: LOX IMVI
COLO 205 = system: COLO 205
NCI-H460 = system: NCI-H460
U-251 = system: U-251
XF498 = system: XF498
HOP-92 = system: HOP-92
A549 = system: A549
SK-MEL-5 = system: SK-MEL-5
RXF 393 = system: RXF 393
SF-268 = system: SF-268
SW-620 = system: SW-620
SF-539 = system: SF-539
SNB-19 = system: SNB-19
KM-20L2 = system: KM-20L2
DMS-114 = system: DMS-114
A498 = system: A498
MOLT-4 = system: MOLT-4
CCRF-CEM = system: CCRF-CEM
ACHN = system: ACHN
HOP-62 = system: HOP-62
HCC 2998 = system: HCC 2998
IGROV-1 = system: IGROV-1
OVCAR-5 = system: OVCAR-5
OVCAR-8 = system: OVCAR-8
HCT-15 = system: HCT-15
TK-10 = system: TK-10
M14 = system: M14
UO-31 = system: UO-31
SNB-78 = system: SNB-78
NCI-H522 = system: NCI-H522
DMS-273 = system: DMS-273
SK-OV-3 = system: SK-OV-3
SK-MEL-2 = system: SK-MEL-2
NCI/ADR-RES = system: NCI/ADR-RES
MCF7 = system: MCF7

Structure (SMILES): N#Cc1ccccc1NC(=O)C(=O)C1NC(=S)NC1=O (centres undefined)
- GI50 (EKVX): > 100 µM (inactive)
- GI50 (HL-60): > 100 µM (inactive)
- GI50 (NCI-H23): > 100 µM (inactive)
- GI50 (Malme-3M): > 100 µM (inactive)
- GI50 (HCT-116): > 100 µM (inactive)
- GI50 (NCI-H226): > 100 µM (inactive)
- GI50 (HOP-18): 46.6 µM (inactive)
- GI50 (LXFL 529): > 100 µM (inactive)
- GI50 (SR): > 100 µM (inactive)
- GI50 (UACC-257): > 100 µM (inactive)
- GI50 (SN12C): > 100 µM (inactive)
- GI50 (CAKI-1): > 100 µM (inactive)
- GI50 (M19-MEL): > 100 µM (inactive)
- GI50 (KM12): > 100 µM (inactive)
- GI50 (RPMI-8226): > 100 µM (inactive)
- GI50 (UACC-62): > 100 µM (inactive)
- GI50 (HT-29): > 100 µM (inactive)
- GI50 (SF-295): > 100 µM (inactive)
- GI50 (DLD-1): > 100 µM (inactive)
- GI50 (SNB-75): > 100 µM (inactive)
- GI50 (OVCAR-4): > 100 µM (inactive)
- GI50 (K562): > 100 µM (inactive)
- GI50 (OVCAR-3): > 100 µM (inactive)
- GI50 (SK-MEL-28): > 100 µM (inactive)
- GI50 (786-0): > 100 µM (inactive)
- GI50 (LOX IMVI): > 100 µM (inactive)
- GI50 (COLO 205): > 100 µM (inactive)
- GI50 (NCI-H460): > 100 µM (inactive)
- GI50 (U-251): > 100 µM (inactive)
- GI50 (XF498): > 100 µM (inactive)
- GI50 (HOP-92): > 100 µM (inactive)
- GI50 (A549): > 100 µM (inactive)
- GI50 (SK-MEL-5): > 100 µM (inactive)
- GI50 (RXF 393): > 100 µM (inactive)
- GI50 (SF-268): > 100 µM (inactive)
- GI50 (SW-620): > 100 µM (inactive)
- GI50 (SF-539): > 100 µM (inactive)
- GI50 (SNB-19): > 100 µM (inactive)
- GI50 (KM-20L2): > 100 µM (inactive)
- GI50 (DMS-114): > 100 µM (inactive)
- GI50 (A498): > 100 µM (inactive)
- GI50 (MOLT-4): > 100 µM (inactive)
- GI50 (CCRF-CEM): > 100 µM (inactive)
- GI50 (ACHN): > 100 µM (inactive)
- GI50 (HOP-62): > 100 µM (inactive)
- GI50 (HCC 2998): > 100 µM (inactive)
- GI50 (IGROV-1): > 100 µM (inactive)
- GI50 (OVCAR-5): > 100 µM (inactive)
- GI50 (OVCAR-8): > 100 µM (inactive)
- GI50 (HCT-15): > 100 µM
- GI50 (TK-10): > 100 µM (inactive)
- GI50 (M14): > 100 µM (inactive)

Structure (SMILES): CN(C)CCNC(=O)c1cccc2[nH]c(-c3ccc(Cl)cc3)nc12
- GI50 (EKVX): 12.4 µM (inactive)
- GI50 (HL-60): 2.77 µM (inactive)
- GI50 (NCI-H23): 7.41 µM (inactive)
- GI50 (Malme-3M): 6.82 µM (inactive)
- GI50 (HCT-116): 3.28 µM (inactive)
- GI50 (NCI-H226): 4.59 µM (inactive)
- GI50 (HOP-18): 14.4 µM (inactive)
- GI50 (UACC-257): 7.78 µM (inactive)
- GI50 (SN12C): 5.07 µM (inactive)
- GI50 (CAKI-1): 2.82 µM (inactive)
- GI50 (M19-MEL): 6.98 µM (inactive)
- GI50 (KM12): 6.95 µM (inactive)
- GI50 (RPMI-8226): 2.76 µM (inactive)
- GI50 (UO-31): 2.69 µM (inactive)
- GI50 (UACC-62): 5.53 µM (inactive)
- GI50 (HT-29): 4.24 µM (inactive)
- GI50 (SF-295): 8.18 µM (inactive)
- GI50 (DLD-1): 4.8 µM (inactive)
- GI50 (SNB-75): 4.4 µM (inactive)
- GI50 (OVCAR-4): 7.24 µM (inactive)
- GI50 (K562): 2.93 µM (inactive)
- GI50 (OVCAR-3): 10.2 µM (inactive)
- GI50 (SK-MEL-28): 17.1 µM (inactive)
- GI50 (SNB-78): 15.9 µM (inactive)
- GI50 (LOX IMVI): 4.42 µM (inactive)
- GI50 (NCI-H522): 6.14 µM (inactive)
- GI50 (COLO 205): 2.97 µM (inactive)
- GI50 (NCI-H460): 3.12 µM (inactive)
- GI50 (U-251): 5.42 µM (inactive)
- GI50 (XF498): 4.49 µM (inactive)
- GI50 (HOP-92): 5.25 µM (inactive)
- GI50 (A549): 3.66 µM (inactive)
- GI50 (SK-MEL-5): 4.8 µM (inactive)
- GI50 (RXF 393): 8.57 µM (inactive)
- GI50 (SF-268): 12.7 µM (inactive)
- GI50 (DMS-273): 4.03 µM (inactive)
- GI50 (SW-620): 3.96 µM (inactive)
- GI50 (SF-539): 4.65 µM (inactive)
- GI50 (SNB-19): 7.87 µM (inactive)
- GI50 (KM-20L2): 5.14 µM (inactive)
- GI50 (DMS-114): 8.61 µM (inactive)
- GI50 (A498): 10.7 µM (inactive)
- GI50 (SK-OV-3): 11.4 µM (inactive)
- GI50 (MOLT-4): 2.03 µM (inactive)
- GI50 (CCRF-CEM): 6.21 µM (inactive)
- GI50 (SK-MEL-2): 13.4 µM (inactive)
- GI50 (HOP-62): 8.77 µM (inactive)
- GI50 (HCC 2998): 4.05 µM (inactive)
- GI50 (IGROV-1): 7.35 µM (inactive)
- GI50 (OVCAR-5): 10.3 µM (inactive)
- GI50 (OVCAR-8): 4.61 µM (inactive)
- GI50 (NCI/ADR-RES): 5.42 µM (inactive)
- GI50 (HCT-15): 4.99 µM
- GI50 (MCF7): 3.66 µM (inactive)

Structure (SMILES): Cc1cccc2c1C(=O)OC2(C)c1cccc2ccccc12 (centres undefined)
- GI50 (EKVX): 35.7 µM (inactive)
- GI50 (HL-60): 16.4 µM (inactive)
- GI50 (NCI-H23): 30.8 µM (inactive)
- GI50 (Malme-3M): 25.5 µM (inactive)
- GI50 (NCI-H226): 26.5 µM (inactive)
- GI50 (HOP-18): > 100 µM (inactive)
- GI50 (SR): 23.2 µM (inactive)
- GI50 (UACC-257): 34.2 µM (inactive)
- GI50 (SN12C): 21.2 µM (inactive)
- GI50 (CAKI-1): 19.8 µM (inactive)
- GI50 (M19-MEL): 50 µM (inactive)
- GI50 (KM12): 27.6 µM (inactive)
- GI50 (RPMI-8226): 25.4 µM (inactive)
- GI50 (UO-31): 32.8 µM (inactive)
- GI50 (HT-29): 30.5 µM (inactive)
- GI50 (SF-295): 32.1 µM (inactive)
- GI50 (DLD-1): 30.5 µM (inactive)
- GI50 (SNB-75): 9.71 µM (inactive)
- GI50 (OVCAR-4): 22.4 µM (inactive)
- GI50 (K562): 16.4 µM (inactive)
- GI50 (OVCAR-3): 26.9 µM (inactive)
- GI50 (SK-MEL-28): 41.3 µM (inactive)
- GI50 (SNB-78): 73.6 µM (inactive)
- GI50 (786-0): 30.9 µM (inactive)
- GI50 (LOX IMVI): 30.3 µM (inactive)
- GI50 (NCI-H522): 16.8 µM (inactive)
- GI50 (NCI-H460): 29.7 µM (inactive)
- GI50 (U-251): 26.2 µM (inactive)
- GI50 (XF498): 4.86 µM (inactive)
- GI50 (HOP-92): 18.6 µM (inactive)
- GI50 (A549): 35.2 µM (inactive)
- GI50 (SK-MEL-5): 16.4 µM (inactive)
- GI50 (RXF 393): 22.6 µM (inactive)
- GI50 (SF-268): 28.4 µM (inactive)
- GI50 (SW-620): 30.3 µM (inactive)
- GI50 (SNB-19): 78.5 µM (inactive)
- GI50 (KM-20L2): 24.4 µM (inactive)
- GI50 (DMS-114): 43.1 µM (inactive)
- GI50 (MOLT-4): 26.2 µM (inactive)
- GI50 (CCRF-CEM): 17.5 µM (inactive)
- GI50 (ACHN): 30.6 µM (inactive)
- GI50 (SK-MEL-2): 23.8 µM (inactive)
- GI50 (HCC 2998): 20.9 µM (inactive)
- GI50 (OVCAR-5): > 100 µM (inactive)
- GI50 (OVCAR-8): 32.3 µM (inactive)
- GI50 (HCT-15): 29 µM
- GI50 (TK-10): 29.5 µM (inactive)
- GI50 (M14): 13 µM (inactive)

Reference: ChEMBL document CHEMBL1201862, “PubChem BioAssay data set” (2004)
